As a reminder, the EC50 is the concentration giving half of the maximal effect.

This is an account of results in publication PMC10451623 (Antioxidants, 2023).

For one experiment, the target named is T1, human PPARγ (Homo sapiens, UniProt P37231).
T1 construct: expressed in transfected cells; host or cells: COS-7
T1 sequence (P37231 238-503 limits assumed): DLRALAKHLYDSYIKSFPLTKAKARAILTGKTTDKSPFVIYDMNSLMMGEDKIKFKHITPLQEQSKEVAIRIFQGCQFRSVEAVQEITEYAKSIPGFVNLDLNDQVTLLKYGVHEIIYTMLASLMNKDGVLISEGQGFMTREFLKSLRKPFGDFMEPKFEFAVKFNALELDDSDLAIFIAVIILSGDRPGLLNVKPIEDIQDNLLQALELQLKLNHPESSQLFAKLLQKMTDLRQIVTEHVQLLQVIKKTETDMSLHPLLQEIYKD
Description: Transactivation assay (GAL4–hPPARγ-LBD chimera, luciferase reporter, COS-7 cells). The class given is cell-based. As to conditions: for Emax: 100% = 1 µM GW1929, read-out: Efficacy, PPARγ transactivation (% of the maximal response); for EC50: GAL4–hPPARγ-LBD. The method, then:
(§1) The pSG5-GAL–hPPARα/δ/γ plasmids express fusion proteins comprising the yeast transcription factor GAL4 DNA-binding domain and each of the human PPARα/δ/γ-LBDs. The MH100(UAS)×4-tk-Luc plasmid contains four copies of the MH100 GAL4 binding site and the Firefly luciferase gene. The cells were transfected with those plasmids and were treated with various PPAR ligands, and both Firefly and Renilla luciferase activities were measured using the Dual-Glo Luciferase Assay System (Promega, Madison, WI, USA) as described previously. […] GW1929 was purchased from Sigma-Aldrich (St. Louis, MO, USA).
(§2) For the undertaking of the comparison of the potency, efficacy, and selectivity of the five PPAR ligands (Figure 1A) against the PPAR subtypes, we evaluated their PPARα/δ/γ activation using three different methods: a cell-based transactivation assay, a coactivator recruitment assay, and a thermal stability assay, as we previously performed on three fibrates (namely, bezafibrate, fenofibric acid, and pemafibrate). The cell-based transactivation assay utilizing the Gal4–PPAR-LBD system is the most widely used method for the determination of PPAR activation by certain ligands, although their responses depend on the used cell types in which several coactivators with altered functions are differentially expressed.
(§3) Figure 1 LBD-mediated human PPARα/δ/γ transactivation by PPAR ligands. (A) Chemical structures of the five PPAR ligands used in this study. […] Data are presented as the mean ± standard error (SE) of three independent experiments with duplicate samples.
(A reporter such as luciferase makes a cellular process visible.)

The target in a further experiment is T2, PPARγ-LBD (Homo sapiens, UniProt P37231).
T2 sequence (P37231 203-477 isoform P37231-2): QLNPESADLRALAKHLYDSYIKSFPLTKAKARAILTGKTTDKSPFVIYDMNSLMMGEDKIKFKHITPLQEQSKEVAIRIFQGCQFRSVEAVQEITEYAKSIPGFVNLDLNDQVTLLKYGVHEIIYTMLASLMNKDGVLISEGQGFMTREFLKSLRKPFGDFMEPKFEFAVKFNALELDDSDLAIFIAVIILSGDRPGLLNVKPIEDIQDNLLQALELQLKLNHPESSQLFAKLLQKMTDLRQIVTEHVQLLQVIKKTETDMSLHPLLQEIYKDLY
Nature of the experiment: TR-FRET SRC1 coactivator recruitment assay. The format is biochemical. Details: PPARγ-LBD (amino acids 203–477 in isoform 1); made in house; host or cells: Rosetta (DE3) pLysS (E. coli). Particulars: SRC1 peptide, read-out: EC50, SRC1 recruitment to PPARγ-LBD. The method, then: (§4) Subsequently, 5 µL of 4 nM Eu-W1024-labeled anti-6×His antibody/80 nM ULight-Streptavidin (PerkinElmer) was added to each well, and the microplate was incubated in the dark for 2 h, at room temperature. […] The nonlinear fitting and the calculation of the EC50 were performed using the Prism 9 software (GraphPad, San Diego, CA, USA).
(§5) The ligand-bound activated forms of PPARs are stabilized by associations with specific coactivators, thereby enabling the regulation of specific gene expression.
(§6) Figure 2 TR-FRET-based LBD-mediated human PPARα/δ/γ coactivator recruitment assay. […] Data are presented as the mean ± SE of three or four independent experiments with duplicate samples, and the calculated EC50 values are shown.

A further experiment deals with T3, human PPARα (Homo sapiens, UniProt Q07869).
T3 construct: expressed in transfected cells; host or cells: COS-7
T3 sequence (Q07869 239-466 limits assumed): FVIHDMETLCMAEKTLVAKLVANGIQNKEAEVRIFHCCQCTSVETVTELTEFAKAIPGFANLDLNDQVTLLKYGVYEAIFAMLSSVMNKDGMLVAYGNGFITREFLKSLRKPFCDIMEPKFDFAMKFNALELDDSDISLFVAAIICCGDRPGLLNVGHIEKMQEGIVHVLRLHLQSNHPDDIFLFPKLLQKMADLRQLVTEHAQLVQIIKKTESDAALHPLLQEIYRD
Nature of the experiment: Transactivation assay (GAL4–hPPARα-LBD chimera, luciferase reporter, COS-7 cells). The class given is cell-based. Particulars: for Emax: 100% = 1 µM GW7647, read-out: Efficacy, PPARα transactivation (% of the maximal response); for EC50: GAL4–hPPARα-LBD. As for the experimental part: as §1, §2, §3

For the next experiment, the target named is T4, PPARδ-LBD (Homo sapiens, UniProt Q03181).
T4 sequence (Q03181 170-441): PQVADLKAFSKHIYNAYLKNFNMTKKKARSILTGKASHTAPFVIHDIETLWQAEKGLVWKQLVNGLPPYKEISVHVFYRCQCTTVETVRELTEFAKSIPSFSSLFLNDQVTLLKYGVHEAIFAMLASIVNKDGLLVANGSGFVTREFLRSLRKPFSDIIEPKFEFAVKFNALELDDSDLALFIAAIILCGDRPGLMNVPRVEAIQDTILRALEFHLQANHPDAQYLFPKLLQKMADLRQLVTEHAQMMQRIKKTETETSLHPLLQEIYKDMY
Nature of the experiment: TR-FRET PGC1α coactivator recruitment assay. Set-up: PPARδ-LBD (amino acids 170–441); made in house; host or cells: Rosetta (DE3) pLysS (E. coli). The format is biochemical. Particulars: for EC50: TR-FRET, PGC1α peptide, read-out: EC50, PGC1α recruitment to PPARδ-LBD. As for the experimental part:
as §4, §5, §6
(TR-FRET usually uses a lanthanide donor and a delayed reading to cut background.)

For `CSc1ccc(C(=O)/C=C/c2cc(C)c(OC(C)(C)C(=O)O)c(C)c2)cc1` [elafibranor], the Emax at human PPARγ and at human PPARα was 38.5% throughout. Also, the EC50 was found to be 2.12 µM on human PPARγ, 11.8 µM at PPARγ-LBD and 0.388 µM at human PPARα.
For `O=C(O)CCCc1cc2cc(Cl)ccc2n1S(=O)(=O)c1ccc2ncsc2c1` [lanifibranor], the Emax amounted to 24.9% at human PPARγ and 13.3% on human PPARα. Moreover, the EC50 on human PPARγ came to 0.572 µM; on PPARδ-LBD, 3.86 µM; at PPARγ-LBD, 7.57 µM; on human PPARα, 4.66 µM.
Consider `CCO[C@@H](Cc1ccc(OCCn2c(C)ccc2-c2ccc(SC)cc2)cc1)C(=O)O` [saroglitazar], for which the Emax on human PPARγ stood at 89.4%; on human PPARα it was 56.4%. Moreover, the concentration giving a half-maximal response (EC50) is 0.311 µM on human PPARγ, above 100 µM on PPARδ-LBD, 3.44 µM on PPARγ-LBD and 0.19 µM on human PPARα.
As for `CCO[C@H](COc1ccc(C(F)(F)F)cc1)CSc1ccc(OCC(=O)O)c(C)c1` [seladelpar], the Emax at human PPARγ was 58.5%; at human PPARα, 41%. Besides, the EC50 was 3.53 µM at human PPARγ, 0.0307 µM on PPARδ-LBD, above 300 µM at PPARγ-LBD and 1.64 µM on human PPARα. The “Efficacy, PGC1α recruitment to PPARδ-LBD” value on PPARδ-LBD (100% = 1 µM GW501516) is 124%.
